Test results taken from patent US20260284422A1, “BRAIN TUMOR TREATMENT OR PREVENTION OF RECURRENCE WITH LOW INTENSITY AND VARIABLE FREQUENCY MAGNETIC STIMULATION” (ACTIPULSE NEUROSCIENCE INC., priority 2023, published 2026).

Test: Evans Blue dye uptake into brain (BBB permeability) in mice given rTMS or sham
Type: in vivo, wild-type C57BL/6 mice
Excerpt: An in vivo mouse model was used to evaluate the use of rTMS to open the BBB. Ten wild-type C57BL/6 mice where anesthetized and received an intravenous (IV) injection of a 2% Evans Blue dye (in a vehicle of 0.9% NaCl). Evans Blue dye (also referred to as EBD or T-1824) is a non-toxic, azo-based injectable dye that presents visually with a dark blue/brown color. The dye has an affinity for serum albumin and is generally used to assess the permeability of the BBB in vivo. Most tissues will present darker, but neural tissue generally remains unstained. Mice injected with Evans Blue dye were then administered rTMS or a sham treatment and a histological analysis of the brain was performed to evaluate changes in permeability of the BBB. rTMS was administered according to Table 1.
The dye was administered as 100 μL 2% Evans blue (in 0.9% NaCl) via retro orbital injection. Mice were then administered rTMS or a sham (no magnetic field), e.g., as shown in the method overview depicted in FIGS. 2 and 3 for either 1 hr. or 30 min. Mice were euthanized, perfused with 10 mL PBS to expel blood from the organs, and analyzed for the presence of hemorrhage and lesion, e.g., as shown in the representative imaging in FIG. 3. Mice presented as lacking hemorrhage, lesion, or any signs of tissue damage.
Brains were then submerged in 20% sucrose for 2 hr. and embedded in optimal cutting temperature compound (OCT compound) and frozen. The brain was then sectioned at 16 μm thickness, rinsed with PBS, and mounted for scanning at 40× magnification. Section imaging was performed using a digital slide scanner.
An imaging software was used to evaluate the pixelate density and area of staining in brain sections for calculating a comparison of Evans Blue dye uptake into the brain tissue.

Mean area of brain section stained with Evans Blue, rTMS group (100 μL 2% Evans blue retro-orbital, then rTMS, 16 μm brain sections, n=4): 11.12 mm^2
Mean area of brain section stained with Evans Blue, sham group (100 μL 2% Evans blue retro-orbital, then sham (no magnetic field), 16 μm brain sections, n=4): 5.665 mm^2
Difference between means ± SEM of stained area (rTMS vs sham) (unpaired t-test, P 0.004, n=4 per group): 5.456 ± 1.209 mm^2
Compound: Cc1cc(-c2ccc(/N=N/c3ccc4c(S(=O)(=O)O)cc(S(=O)(=O)O)c(N)c4c3O)c(C)c2)ccc1/N=N/c1ccc2c(S(=O)(=O)O)cc(S(=O)(=O)O)c(N)c2c1O [Evans Blue, Evans Blue dye]
